# Results published in patent US7402314B2, “In vivo activation of tumor-specific cytotoxic T cells” (The Scripps Research Institute, priority 1995, dated 2008).
# Where “and” joins values, the source holds several entries; their conditions need not be identical. Equal entries are not always repeated.
# Columns and labels:
# [1] = system: A2.1/K^b-Tg mice; experiment: Peptide priming of A2.1/K^b-Tg mice, lytic activity of peptide-specific CTL; type: in vivo; set-up: Lytic Activity by Peptide-Specific CTL After Priming of A2.1/K^b-Tg Mice [Specific ^51Cr release (%)]: concentration or dose not given beside the values; settings: for Lytic Activity by Peptide-Specific CTL After Priming of A2.1/K^b-Tg Mice [Specific ^51Cr release (%)]: E:T ratio of 60:1, peptide-pulsed T2A2/K^b targets, highest of at least three individual mice; for A2.1/K^b-restricted peptide-specific CTL response of A2.1/K^b-Tg mice (in words): mouse, in vivo
# [2] = molecular target: HLA-A2.1 (Homo sapiens, UniProt P04439, D140Y/D185E/D98H/E176V/E277Q/G131W/G231S/I119V/I121R/I166T/I218V/L300P/L318F/N151K/N90K/P208A/P217A/Q86G/Q94H/R138H/R169H/T345S); experiment: Competition assay of peptide binding to HLA-A2.1 (inhibition of M1 58-66 binding, clone 12 lysis of EA2 targets)
# [3] = system: CASKI; experiment: Cytotoxicity assay, killing of tumors (Table 7); type: cell-based, human
# Description: (§1) One hundred and six (106) target cells were incubated at 37° C. with […] of sodium ^51Cr chromate for 90 minutes in the presence or absence of specific peptide. Cells were washed three times and resuspended in 5% RPMI. For the assay, 104 ^51Cr-labeled target cells were incubated with different concentrations of effector cells in a final volume of […] in U-bottomed 96-well plates. Supernatants were removed after 4-7 hrs at 37° C., and the percent specific lysis was determined by the following formula: […]
# (§2) Tumor cells were preincubated for 24 hours prior to the assay in media supplemented with γ-interferon (γ-IFN, 20 ng/ml) plus tumor necrosis factor-α (TNF-α, 3 ng/ml). It is known that such pretreatment of tumor cells increases the expression of MHC I and adhesion molecules such as ICAM I on the surface of the cell thus enhancing their sensitivity to lysis by CTL. (See, e.g., Fisk, et al., Lympho. & Cylokine Res. 13: 125-131 (1994); Fady, et al., Cancer Immunol. Immunother. 37: 329-336 (1993).)
# [4] = system: Hep-G2; experiment: Cytotoxicity assay, killing of tumors (Table 7); type: cell-based, human
# Description: as §1, §2
# [5] = system: JY; experiment: Cytotoxicity assay, killing of tumors (Table 7); type: cell-based, human
# Description: as §1, §2
# [6] = system: LG-2; experiment: Cytotoxicity assay, killing of tumors (Table 7); type: cell-based, human
# Description: as §1, §2
# [7] = system: MALME-3M; experiment: Cytotoxicity assay, killing of tumors (Table 7); type: cell-based, human
# Description: as §1, §2
# [8] = system: MCF-7; experiment: Cytotoxicity assay, killing of tumors (Table 7); type: cell-based, human
# Description: as §1, §2
# [9] = system: MDA.MB435; experiment: Cytotoxicity assay, killing of tumors (Table 7); type: cell-based, human
# Description: as §1, §2
# [10] = system: OVCAR-5; experiment: Cytotoxicity assay, killing of tumors (Table 7); type: cell-based, human
# Description: as §1, §2
# [11] = system: SAOS.175; experiment: Cytotoxicity assay, killing of tumors (Table 7); type: cell-based, human
# Description: as §1, §2
# [12] = system: SKMEL-5; experiment: Cytotoxicity assay, killing of tumors (Table 7); type: cell-based, human
# Description: as §1, §2
# [13] = system: ST486; experiment: Cytotoxicity assay, killing of tumors (Table 7); type: cell-based, human
# Description: as §1, §2
# [14] = system: SV80; experiment: Cytotoxicity assay, killing of tumors (Table 7); type: cell-based, human
# Description: as §1, §2
# [15] = system: SW480; experiment: Cytotoxicity assay, killing of tumors (Table 7); type: cell-based, human
# Description: as §1, §2
# [16] = system: T98G; experiment: Cytotoxicity assay, killing of tumors (Table 7); type: cell-based, human
# Description: as §1, §2
# [17] = system: U2-OS; experiment: Cytotoxicity assay, killing of tumors (Table 7); type: cell-based, human
# Description: as §1, §2
# [18] = system: U87G; experiment: Cytotoxicity assay, killing of tumors (Table 7); type: cell-based, human
# Description: as §1, §2
# [19] = system: Saos-2/175; experiment: 5-hour ^51Cr release assay, endogenously synthesized p53 epitopes (Example 4); type: cell-based, human; settings: relative to p53-deficient Saos-2
Sequence,Lytic Activity by Peptide-Specific CTL After Priming of A2.1/K^b-Tg Mice [Specific ^51Cr release (%)] [1] [%],A2.1/K^b-restricted peptide-specific CTL response of A2.1/K^b-Tg mice (in words) [1],further results
AAPPVAPA [hu-wt-p53 69-76],0,–,–
AAPPVAPAPA [hu-wt-p53 69-78],0,–,–
AAPPVAPAPAA [hu-wt-p53 69-79],0,–,–
AAPTPAAPA [hu-wt-p53 78-86],0,–,–
ALNKMFCQL,0,–,–
DLMLSPDDI [hu-wt-p53 42-50],0,–,–
GLAPPQHLI [hu-wt-p53 187-195],1,lack of CTL responsiveness,A2.1-binding activity / affinity for the presenting MHC class I molecule (in words) [2]: high
"ILKEPVHGV [HIV-1 RT 476-484, reference compound]",–,could mount an A2.1/K^b-restricted CTL response,–
ITLEDSSGNL [hu-wt-p53 255-264],3,lack of CTL responsiveness,A2.1-binding activity / affinity for the presenting MHC class I molecule (in words) [2]: intermediate
"KLVGKLNWA [HIV-9K, reference compound]",–,–,Killing of Tumors Expressing Her-2/neu (percent specific lysis) [3]: 8% and 11%; Killing of Tumors Expressing Her-2/neu (percent specific lysis) [4]: 1% and 8%; Killing of Tumors Expressing Her-2/neu (percent specific lysis) [5]: 2% and 1%; Killing of Tumors Expressing Her-2/neu (percent specific lysis) [6]: 1%; Killing of Tumors Expressing Her-2/neu (percent specific lysis) [7]: 2% and 1%; Killing of Tumors Expressing Her-2/neu (percent specific lysis) [8]: 3% and 7%; Killing of Tumors Expressing Her-2/neu (percent specific lysis) [9]: 4% and 3%; Killing of Tumors Expressing Her-2/neu (percent specific lysis) [10]: 10% and 12%; Killing of Tumors Expressing Her-2/neu (percent specific lysis) [11]: 18% and 11%; Killing of Tumors Expressing Her-2/neu (percent specific lysis) [12]: 5% and 4%; Killing of Tumors Expressing Her-2/neu (percent specific lysis) [13]: 1%; Killing of Tumors Expressing Her-2/neu (percent specific lysis) [14]: 2%; Killing of Tumors Expressing Her-2/neu (percent specific lysis) [15]: 1% and 4%; Killing of Tumors Expressing Her-2/neu (percent specific lysis) [16]: 9% and 13%; Killing of Tumors Expressing Her-2/neu (percent specific lysis) [17]: 18% and 24%; Killing of Tumors Expressing Her-2/neu (percent specific lysis) [18]: 5% and 1%
"LLGRDSFEV [mur-wt-p53 261-269, reference compound]",10,No significant response,A2.1-binding activity / affinity for the presenting MHC class I molecule (in words) [2]: highest A2.1-binding activity of all p53 peptides tested
LLGRNSFEV,94,detectable,–
LLPENNVLS [hu-wt-p53 25-33],3,–,–
LLPENNVLSPL [hu-wt-p53 25-35],47,detectable,A2.1-binding activity / affinity for the presenting MHC class I molecule (in words) [2]: high affinity; recognition of Saos-2/175 by CTL from A2.1/K^b-Tg mice specific for the peptide (endogenous processing and presentation) [19]: did not lyse Saos-2/175
LMLSPDDIEQ [hu-wt-p53 43-52],3,–,–
NLLGRNSFEV [hu-wt-p53 263-272],3,–,–
NTFRHSVVV [hu-wt-p53 210-218],6,–,–
PLDGEYFTL [hu-wt-p53 322-330],0,lack of CTL responsiveness,A2.1-binding activity / affinity for the presenting MHC class I molecule (in words) [2]: intermediate
RMPEAAPPV [hu-wt-p53 65-73],85,detectable,A2.1-binding activity / affinity for the presenting MHC class I molecule (in words) [2]: high affinity; recognition of Saos-2/175 by CTL from A2.1/K^b-Tg mice specific for the peptide (endogenous processing and presentation) [19]: did not lyse Saos-2/175
SVTCTYSPA [hu-wt-p53 121-129],–,–,A2.1-binding: inhibition of A2.1-binding of M1 (58-66) (%) [2]: 8%
VAPAPAAPT [hu-wt-p53 73-81],0,–,–
VLSPLPSQA [hu-wt-p53 31-39],3,–,–
VLSPLPSQAM [hu-wt-p53 31-40],0,–,–
